What was measured:
[1] = Agonist activity at mu opioid receptor in guinea pig ileum assessed as inhibition of electrically-stimulated muscle contraction
[2] = biological target: Melanocortin receptor 4 (Homo sapiens, UniProt P32245); test: Displacement of Eu-NDP-alphaMSH from human MC4 receptor expressed in human HEK293 cells
Melanocortin receptor 4, sequence (P32245 whole entry): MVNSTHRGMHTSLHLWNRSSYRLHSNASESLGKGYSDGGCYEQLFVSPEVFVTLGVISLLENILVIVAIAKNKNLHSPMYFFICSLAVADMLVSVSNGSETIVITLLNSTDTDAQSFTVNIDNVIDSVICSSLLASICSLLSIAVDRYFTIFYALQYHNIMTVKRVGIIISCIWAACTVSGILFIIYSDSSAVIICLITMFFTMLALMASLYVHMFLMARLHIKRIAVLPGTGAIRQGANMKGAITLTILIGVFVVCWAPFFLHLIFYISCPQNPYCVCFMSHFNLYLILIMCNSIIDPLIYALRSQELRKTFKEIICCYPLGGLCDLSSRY

| Structure (SMILES) | IC50 [1] [nM] | IC50 [2] [nM] |
| --- | --- | --- |
| Cc1cc(O)cc(C)c1C[C@H](N)C(=O)N1CC(=O)N[C@@H](Cc2cnc[nH]2)C(=O)N[C@H](Cc2ccccc2)C(=O)N[C@@H](CCCN=C(N)N)C(=O)N[C@@H](Cc2c[nH]c3ccccc23)C(=O)N[C@H](C(=O)N[C@@H](CC(=O)O)C(=O)N[C@@H](Cc2ccccc2)C(N)=O)CSSC[C@@H](N)C1=O [(S)-3-((4R,7S,10S,13R,16S,22S)-16-((1H-imidazol-5-yl)methyl)-7-((1H-indol-3-yl)methyl)-22-amino-20-((S)-2-amino-3-(4-hydroxy-2,6-dimethylphenyl)propanoyl)-13-benzyl-10-(3-guanidinopropyl)-6,9,12,15,18,21-hexaoxo-1,2-dithia-5,8,11,14,17,20-hexaazacyclotricosane-4-carboxamido)-4-((S)-1-amino-1-oxo-3-phenylpropan-2-ylamino)-4-oxobutanoic acid] | 190 |  |
| CCCC[C@H](NC(=O)[C@H](Cc1c[nH]c2ccccc12)NC(=O)[C@H](CCCN=C(N)N)NC(=O)[C@@H](Cc1ccc2ccccc2c1)NC(=O)[C@H](Cc1cnc[nH]1)NC(=O)[C@H](Cc1ccccc1)NC(=O)[C@@H](C)NC(=O)[C@@H](N)Cc1ccc(O)cc1)C(=O)N[C@@H](CC(=O)O)C(=O)N[C@@H](Cc1ccccc1)C(N)=O [(3S,6S,9S,12S,15R,18S,21S,24R,27S)-18-((1H-imidazol-5-yl)methyl)-9-((1H-indol-3-yl)methyl)-27-amino-3-((S)-1-amino-1-oxo-3-phenylpropan-2-ylcarbamoyl)-21-benzyl-6-butyl-12-(3-guanidinopropyl)-28-(4-hydroxyphenyl)-24-methyl-15-(naphthalen-2-ylmethyl)-5,8,11,14,17,20,23,26-octaoxo-4,7,10,13,16,19,22,25-octaazaoctacosan-1-oic acid] |  | 631 |
